Laboratory results taken from patent publication US20100298141A1, “SUBSTITUTED PYRIDINE N-OXIDE HERBICIDES” (E. I. DU PONT DE NEMOURS AND COMPANY, priority 2007, published 2010).

Experiments:
Assay in all cases: Test F preemergence test
common mallow = type: in vivo, Malva sylvestris; settings: scale 0 to 100
How it was run: (§1)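 Preemergence application to planted seeds, or postemergence to sugarcane plants; compound in non-phytotoxic solvent mix plus surfactant. Greenhouse, 14-21 days. Visual rating vs. controls.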

field bindweed = type: in vivo, Convolvulus arvensis; settings: scale 0 to 100
How it was run: as §1

annual bluegrass = type: in vivo, Poa annua; settings: scale 0 to 100
How it was run: as §1

Surinam grass = type: in vivo, Brachiaria decumbens; settings: scale 0 to 100
How it was run: as §1

green foxtail = type: in vivo, Setaria viridis; settings: scale 0 to 100
How it was run: as §1

large crabgrass = type: in vivo, Digitaria sanguinalis; settings: scale 0 to 100
How it was run: as §1

Canada horseweed = type: in vivo, Conyza canadensis; settings: scale 0 to 100
Excerpt: Seeds of plant species selected from bermudagrass (Cynodon dactylon), Surinam grass (Brachiaria decumbens), large crabgrass (Digitaria sanguinalis), green foxtail (Setaria viridis), goosegrass (Eleusine indica), johnsongrass (Sorghum halepense), kochia (Kochia scoparia), pitted morningglory (Ipomoea lacunosa), purple nutsedge (Cyperus rotundus), common ragweed (Ambrosia elation), mustard (Brassica nigra), guineagrass (Panicum maximum), […] (Paspalum dilatatum), barnyardgrass (Echinochloa crus-galli), southern sandbur (Cenchrus echinatus), common sowthistle (Sonchus oleraceous), prickly […] spinosa), Italian ryegrass (Lolium multiflorum), common purslane (Portulaca oleracea), broadleaf signalgrass (Brachiaria platyphylla), common groundsel (Senecio vulgaris), common chickweed (Stellaria media), Virginia dayflower (Commelina virginica), annual bluegrass (Poa annua), naked crabgrass (Digitaria nuda), […] cochinchinensis), quackgrass (Elytrigia repens), Canada horseweed (Conyza canadensis), field bindweed (Convolvulus arvensis), […] (Bidens bipinnata), common mallow (Malva sylvestris), Russian thistle (Salsola kali), and sugarcane (Saccharum officinarum) were planted and treated preemergence with test chemicals formulated in a non-phytotoxic solvent mixture which included a surfactant. At a different time, sugarcane was treated with postemergence applications of some of the test chemicals formulated in the same manner. Plants were approximately 3- to 4-leaf stage for the postemergence treatments. Treated plants and controls were maintained in a greenhouse for 14 to 21 days, after which time all species were compared to controls and visually evaluated. […] A dash (-) response means no test result.

naked crabgrass = type: in vivo, Digitaria nuda; settings: scale 0 to 100
How it was run: as §1

common purslane = type: in vivo, Portulaca oleracea; settings: scale 0 to 100
How it was run: as §1

mustard = type: in vivo, Brassica nigra; settings: scale 0 to 100
How it was run: as §1

guineagrass = type: in vivo, Panicum maximum; settings: scale 0 to 100
How it was run: as §1

southern sandbur = type: in vivo, Cenchrus echinatus; settings: scale 0 to 100
How it was run: as §1

barnyardgrass = type: in vivo, Echinochloa crus-galli
How it was run: as §1

common ragweed = type: in vivo, Ambrosia elation; settings: scale 0 to 100
How it was run: as §1

bermudagrass = type: in vivo, Cynodon dactylon; settings: scale 0 to 100
How it was run: as §1

quackgrass = type: in vivo, Elytrigia repens; settings: scale 0 to 100
How it was run: as §1

prickly sida = type: in vivo, Sida spinosa; settings: scale 0 to 100
How it was run: as §1

pitted morningglory = type: in vivo, Ipomoea lacunosa; settings: scale 0 to 100
How it was run: as §1

common chickweed = type: in vivo, Stellaria media; settings: scale 0 to 100
How it was run: as §1

Italian ryegrass = type: in vivo, Lolium multiflorum; settings: scale 0 to 100
How it was run: as §1

Cn1nc(C(F)(F)F)c(C[S+]([O-])c2ccc(F)c[n+]2[O-])c1OCC(F)(F)F (stereo not shown) [Compound 67]
Plant response rating, Mallow (common mallow; 16 g ai/ha, preemergence): 0 | Mallow plant response rating (common mallow; 62 g ai/ha, Preemergence): 100 | Mallow plant response rating (common mallow; 125 g ai/ha, preemergence): 100 | Plant response rating, Mallow (common mallow; Preemergence, 31 g ai/ha): 15 | Plant response rating, Field Bindweed (field bindweed; 16 g ai/ha, preemergence): 0 | Field Bindweed plant response rating (field bindweed; 62 g ai/ha, Preemergence): 35 | Field Bindweed plant response rating (field bindweed; 125 g ai/ha, preemergence): 80 | Plant response rating, Field Bindweed (field bindweed; Preemergence, 31 g ai/ha): 10 | Plant response rating, Bluegrass (annual bluegrass; 16 g ai/ha, preemergence): 0 | Bluegrass plant response rating (annual bluegrass; 62 g ai/ha, Preemergence): 80 | Bluegrass plant response rating (annual bluegrass; 125 g ai/ha, preemergence): 100 | Plant response rating, Bluegrass (annual bluegrass; Preemergence, 31 g ai/ha): 0 | Plant response rating, Surinam Grass (Surinam grass; 16 g ai/ha, preemergence): 75 | Surinam Grass plant response rating (Surinam grass; 125 g ai/ha, preemergence): 100 | Plant response rating, Surinam Grass (Surinam grass; Preemergence, 62 g ai/ha): 100 | Plant response rating, Surinam Grass (Surinam grass; Preemergence, 31 g ai/ha): 95 | Plant response rating, Foxtail, Green (green foxtail; 16 g ai/ha, preemergence): 40 | Foxtail, Green plant response rating (green foxtail; 62 g ai/ha, Preemergence): 80 | Foxtail, Green plant response rating (green foxtail; 125 g ai/ha, preemergence): 100 | Plant response rating, Foxtail, Green (green foxtail; Preemergence, 31 g ai/ha): 60 | Plant response rating, Crabgrass, Large (large crabgrass; 16 g ai/ha, preemergence): 65 | Crabgrass, Large plant response rating (large crabgrass; 62 g ai/ha, Preemergence): 98 | Crabgrass, Large plant response rating (large crabgrass; 125 g ai/ha, preemergence): 100 | Plant response rating, Crabgrass, Large (large crabgrass; Preemergence, 31 g ai/ha): 98 | Plant response rating, Horseweed (Canada horseweed; 16 g ai/ha, preemergence): 0 | Horseweed plant response rating (Canada horseweed; 62 g ai/ha, Preemergence): 100 | Horseweed plant response rating (Canada horseweed; 125 g ai/ha, preemergence): 100 | Plant response rating, Horseweed (Canada horseweed; Preemergence, 31 g ai/ha): 0 | Plant response rating, Crabgrass, Naked (naked crabgrass; 16 g ai/ha, preemergence): 60 | Crabgrass, Naked plant response rating (naked crabgrass; 62 g ai/ha, Preemergence): 100 | Crabgrass, Naked plant response rating (naked crabgrass; 125 g ai/ha, preemergence): 100 | Plant response rating, Crabgrass, Naked (naked crabgrass; Preemergence, 31 g ai/ha): 70 | Plant response rating, Purslane (common purslane; 16 g ai/ha, preemergence): 0 | Purslane plant response rating (common purslane; 62 g ai/ha, Preemergence): 95 | Purslane plant response rating (common purslane; 125 g ai/ha, preemergence): 100 | Plant response rating, Purslane (common purslane; Preemergence, 31 g ai/ha): 0 | Plant response rating, Black Mustard (mustard; 16 g ai/ha, preemergence): 0 | Black Mustard plant response rating (mustard; 62 g ai/ha, Preemergence): 100 | Black Mustard plant response rating (mustard; 125 g ai/ha, preemergence): 100 | Plant response rating, Black Mustard (mustard; Preemergence, 31 g ai/ha): 75 | Plant response rating, Guineagrass (guineagrass; 16 g ai/ha, preemergence): 0 | Guineagrass plant response rating (guineagrass; 62 g ai/ha, Preemergence): 100 | Guineagrass plant response rating (guineagrass; 125 g ai/ha, preemergence): 100 | Plant response rating, Guineagrass (guineagrass; Preemergence, 31 g ai/ha): 95 | Plant response rating, Sandbur (southern sandbur; 16 g ai/ha, preemergence): 60 | Sandbur plant response rating (southern sandbur; 125 g ai/ha, preemergence): 100 | Plant response rating, Sandbur (southern sandbur; Preemergence, 62 g ai/ha): 100 | Plant response rating, Sandbur (southern sandbur; Preemergence, 31 g ai/ha): 100 | Plant response rating, Barnyardgrass (barnyardgrass; 16 g ai/ha, preemergence, scale 0 to 100 (0 no effect, 100 complete control)): 75 | Barnyardgrass plant response rating (barnyardgrass; 62 g ai/ha, Preemergence, scale 0 to 100): 100 | Barnyardgrass plant response rating (barnyardgrass; 125 g ai/ha, preemergence, scale 0 to 100): 100 | Plant response rating, Barnyardgrass (barnyardgrass; Preemergence, 31 g ai/ha, scale 0 to 100): 90 | Plant response rating, Ragweed (common ragweed; 16 g ai/ha, preemergence): 20 | Ragweed plant response rating (common ragweed; 125 g ai/ha, preemergence): 98 | Plant response rating, Ragweed (common ragweed; Preemergence, 62 g ai/ha): 90 | Plant response rating, Ragweed (common ragweed; Preemergence, 31 g ai/ha): 65 | Plant response rating, Bermudagrass (bermudagrass; 16 g ai/ha, preemergence): 20 | Bermudagrass plant response rating (bermudagrass; 62 g ai/ha, Preemergence): 98 | Bermudagrass plant response rating (bermudagrass; 125 g ai/ha, preemergence): 100 | Plant response rating, Bermudagrass (bermudagrass; Preemergence, 31 g ai/ha): 75 | Plant response rating, Quackgrass (quackgrass; 16 g ai/ha, preemergence): 60 | Quackgrass plant response rating (quackgrass; 62 g ai/ha, Preemergence): 85 | Quackgrass plant response rating (quackgrass; 125 g ai/ha, preemergence): 98 | Plant response rating, Quackgrass (quackgrass; Preemergence, 31 g ai/ha): 75 | Plant response rating, Prickly Sida (prickly sida; 16 g ai/ha, preemergence): 0 | Prickly Sida plant response rating (prickly sida; 62 g ai/ha, Preemergence): 90 | Prickly Sida plant response rating (prickly sida; 125 g ai/ha, preemergence): 98 | Plant response rating, Prickly Sida (prickly sida; Preemergence, 31 g ai/ha): 65 | Plant response rating, Morningglory (pitted morningglory; 16 g ai/ha, preemergence): 40 | Morningglory plant response rating (pitted morningglory; 62 g ai/ha, Preemergence): 70 | Morningglory plant response rating (pitted morningglory; 125 g ai/ha, preemergence): 90 | Plant response rating, Morningglory (pitted morningglory; Preemergence, 31 g ai/ha): 70 | Chickweed plant response rating (common chickweed; 62 g ai/ha, Preemergence): 100 | Chickweed plant response rating (common chickweed; 125 g ai/ha, preemergence): 100 | Plant response rating, Chickweed (common chickweed; Preemergence, 31 g ai/ha): 40 | Plant response rating, Ryegrass, Italian (Italian ryegrass; 16 g ai/ha, preemergence): 40 | Ryegrass, Italian plant response rating (Italian ryegrass; 125 g ai/ha, preemergence): 100 | Plant response rating, Ryegrass, Italian (Italian ryegrass; Preemergence, 62 g ai/ha): 100 | Plant response rating, Ryegrass, Italian (Italian ryegrass; Preemergence, 31 g ai/ha): 75
